The record followed here is PMC10544575, “Inhibitory mechanism of vortioxetine on CYP450 enzymes in human and rat liver microsomes” (Frontiers in Pharmacology, 2023).

Structures are written as SMILES. Like-named read-outs stand apart in the source and are kept apart here.

What all share (type): in vitro ADME
One data set has as its system CYP2B. As to the kind of experiment: IC50-shift experiment, CYP2B in RLMs. To be noted: rat, rat liver microsomes, probe bupropion; for IC50 at 30 min: bupropion 20 μM. A general note: Liver microsomes are a subcellular fraction often used to study metabolism.
The next data set has as its target CYP2C9 (Homo sapiens, UniProt P11712). As to the kind of experiment: IC50-shift experiment, CYP2C9 in HLMs. On the set-up: 0.20 mg/mL HLMs or 0.20 mg/mL RLMs; from tissue; host or cells: human liver microsomes. The following applies: for IC50: losartan 8 μM. How it is done:
(§1) The components of the incubation system were as follows: 0.20 mg/mL HLMs or 0.20 mg/mL RLMs, 0.1 M Tris-HCl, vortioxetine, and the probe substrates of each enzyme. In the study of Km’s (Michaelis–Menten constant) experiment, midazolam (1, 2, 5, 10, 20, 50 and 100 μM in HLMs and RLMs) corresponded to CYP3A4/3A; bupropion (10, 20, 50, 100, 200, 500, 1,000 and 2000 μM in HLMs; 1, 2, 5, 10, 20, 50, 100 and 200 μM in RLMs) corresponded to CYP2B6/2B; amodiaquine (5, 10, 20, 50, 100 and 200 μM in HLMs; 10, 20, 50, 100, 200, 500 μM in RLMs) corresponded to CYP2C8/CYP2C-1; losartan (1, 2, 5, 10, 20, 50, 100, 200 μM in HLMs; 10, 20, 50, 100, 200, 500 and 1,000 μM in RLMs) corresponded to CYP2C9/CYP2C-2; mephenytoin (20, 50, 100, 200, 500 and 1,000 μM in HLMs; 5, 10, 20, 50, 100, 200, 500 and 1,000 μM in RLMs) corresponded to CYP2C19/CYP2C-3; and dextromethorphan (1, 2, 5, 10, 20, 50 and 100 μM in HLMs and RLMs) corresponded to CYP2D6/CYP2D. After 5.0 min of preincubation in the shaking water bath, the reaction was started with the addition of 1.0 mM NADPH. The incubated temperature at 37°C for 30 min. After the incubation, the enzyme reaction was stopped by cooling at −80°C, and 200 μL of acetonitrile and 20 μL of internal standard diazepam (200 ng/mL) were added for protein precipitation. […]
(§2) IC50-shift was used to investigate whether the drug produced time-dependent inhibition (TDI) of the enzyme. […] During the experiment, the individual substrates midazolam (4 μM), bupropion (40 μM), amodiaquine (3 μM), losartan (8 μM), mephenytoin (90 μM), and dextromethorphan (10 μM) were determined with vortioxetine IC50-shift in HLMs. […]
(§3) All experiments results were detected by UPLC-MS/MS, which equipped with a Waters Acquity UPLC system (Milford, MA, United States) and a Waters Xevo TQ-S triple quadrupole tandem mass spectrometer with an electrospray ionization source (Milford, MA, United States). […]
(§4) IC50 values and enzyme kinetic parameters were calculated by Graphpad Prism 6.0 (GraphPad software Inc., CA, United States). […] Data for each experiment were expressed as mean ± SD (n = 3).

The next data set has as its target CYP2C19 (Homo sapiens, UniProt P33261). As to the kind of experiment: IC50 of vortioxetine on CYP2C19 (mephenytoin) in HLMs. Also on record: 0.20 mg/mL HLMs; from tissue; host or cells: human liver microsomes. How it is done:
as §1, with “CYP2D6/CYP2D.” for “CYP2D6/CYP2D. After 5.0 min of preincubation in the shaking water bath, the reaction was started with the addition of 1.0 mM NADPH. The incubated temperature at 37°C for 30 min. After the incubation, the enzyme reaction was stopped by cooling at −80°C, and 200 μL of acetonitrile and 20 μL of internal standard diazepam (200 ng/mL) were added for protein precipitation.”
as §3, §4

The target in a further data set is T1, CYP2C8 (Homo sapiens, UniProt P10632).
T1 sequence (P10632 1-490): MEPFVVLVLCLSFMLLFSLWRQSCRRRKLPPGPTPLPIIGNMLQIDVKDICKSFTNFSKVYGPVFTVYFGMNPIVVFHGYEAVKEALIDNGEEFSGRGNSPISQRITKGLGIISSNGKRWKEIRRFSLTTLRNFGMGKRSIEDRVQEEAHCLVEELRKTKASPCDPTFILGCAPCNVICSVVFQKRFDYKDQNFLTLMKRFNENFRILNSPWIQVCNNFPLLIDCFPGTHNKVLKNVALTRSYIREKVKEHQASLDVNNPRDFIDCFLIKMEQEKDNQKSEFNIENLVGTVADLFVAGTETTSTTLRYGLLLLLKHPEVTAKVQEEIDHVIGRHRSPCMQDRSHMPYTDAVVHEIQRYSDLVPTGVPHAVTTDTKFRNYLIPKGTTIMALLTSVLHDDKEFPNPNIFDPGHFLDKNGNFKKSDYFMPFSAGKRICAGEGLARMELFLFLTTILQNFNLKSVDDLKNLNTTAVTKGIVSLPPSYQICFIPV
Put plainly: IC50-shift experiment, CYP2C8 in HLMs. To be noted: for IC50: amodiaquine 3 μM. On the set-up: 0.20 mg/mL HLMs or 0.20 mg/mL RLMs; from tissue; host or cells: human liver microsomes. How it is done: as §1, §2, §3, §4

Setting [1] is: 30 min preincubation with 1.0 mM NADPH.
Where [2] appears, read: 30 min preincubation without NADPH.

In general, IC50 refers to the point on the concentration scale where inhibition reaches its midpoint.

Chain of CYP2C9 (P11712 whole entry): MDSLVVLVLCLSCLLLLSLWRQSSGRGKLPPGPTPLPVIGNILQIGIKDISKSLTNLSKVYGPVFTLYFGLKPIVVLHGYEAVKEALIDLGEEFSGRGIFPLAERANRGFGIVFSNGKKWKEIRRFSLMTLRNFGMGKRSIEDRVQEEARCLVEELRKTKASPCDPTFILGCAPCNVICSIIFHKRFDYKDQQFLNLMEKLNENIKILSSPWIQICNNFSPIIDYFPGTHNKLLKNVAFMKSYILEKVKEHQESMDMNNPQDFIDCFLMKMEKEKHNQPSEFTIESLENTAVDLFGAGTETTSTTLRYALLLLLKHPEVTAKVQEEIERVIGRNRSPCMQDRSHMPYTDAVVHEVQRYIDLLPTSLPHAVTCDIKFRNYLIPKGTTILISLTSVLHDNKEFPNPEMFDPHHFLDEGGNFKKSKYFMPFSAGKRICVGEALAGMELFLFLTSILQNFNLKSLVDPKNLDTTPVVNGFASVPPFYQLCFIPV
Chain of CYP2C19 (P33261 whole entry): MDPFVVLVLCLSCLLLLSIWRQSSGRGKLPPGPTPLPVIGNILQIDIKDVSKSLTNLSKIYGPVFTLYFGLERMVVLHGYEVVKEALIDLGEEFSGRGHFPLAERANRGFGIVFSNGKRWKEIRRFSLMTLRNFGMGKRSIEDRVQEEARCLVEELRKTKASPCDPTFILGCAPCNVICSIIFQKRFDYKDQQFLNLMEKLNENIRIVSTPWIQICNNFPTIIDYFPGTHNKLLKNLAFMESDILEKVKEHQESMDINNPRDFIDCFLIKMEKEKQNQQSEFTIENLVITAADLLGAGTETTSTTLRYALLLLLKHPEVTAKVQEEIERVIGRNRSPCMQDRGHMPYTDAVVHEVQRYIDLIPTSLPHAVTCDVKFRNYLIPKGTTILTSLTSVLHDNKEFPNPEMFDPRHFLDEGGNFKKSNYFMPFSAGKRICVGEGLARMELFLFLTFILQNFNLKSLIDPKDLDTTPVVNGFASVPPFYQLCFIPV

As to `Cc1ccc(Sc2ccccc2N2CCNCC2)c(C)c1` [vortioxetine], the figures for the IC50 at 30 min in the data set with CYP2B (setting [1]) and with CYP2B (setting [2]) were 5.3 µM and 10.1 µM, respectively. Further, the IC50 shift at 30 min was determined as 1.91 with CYP2B (ratio IC50 (−) NADPH to IC50 (+) NADPH, read-out: IC50 fold shift); 1.11 on CYP2C9 (human, human liver microsomes, probe losartan (8 μM), ratio IC50 (−) NADPH to IC50 (+) NADPH, read-out: IC50 fold shift); 0.97 at CYP2C8 (human, human liver microsomes, probe amodiaquine (3 μM), ratio IC50 (−) NADPH to IC50 (+) NADPH, read-out: IC50 fold shift). Moreover, the IC50 is 16.7 µM at CYP2C9 (setting [1]); 18.6 µM at CYP2C9 (setting [2]); 2.4 µM on CYP2C19 (HLMs 0.20 mg/mL, mephenytoin at Km, 37°C, 30 min, read-out: IC50); 1 to 10 µM at CYP2C19 (inhibitory effect (strength judged by IC50), HLMs); 18.7 µM on CYP2C8 (setting [1]); 18.2 µM on CYP2C8 (setting [2]).
